Data taken from US11174232B2, “Substituted heterocyclyl derivatives as CDK inhibitors” (Aurigene Discovery Technologies Limited, priority 2015, dated 2021).

Biological target: CDK7/CycH/MNAT1 (Homo sapiens (Human), UniProt P50613)
Assay: Biochemical Assay for CDK7 (TR-FRET kinase assay)
Conditions: 60 min pre-incubation with kinase, 1 mM ATP; for inhibition at 10 µM: 10 μM compound
Procedure, shortened: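 TR-FRET with 5 nM CDK7/CycH/MNAT1, compound pre-incubated 60 min at room temperature, then 100 nM ULight-MBP and 1 mM ATP for 60 min; stopped with EDTA, Eu anti-phospho-MBP read at 665/615 nm. 1% DMSO; IC50 from sigmoidal fit. Time-dependence tested with 20, 60, 180 min pre-incubation.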

CDK7/CycH/MNAT1, sequence (P50613 whole entry): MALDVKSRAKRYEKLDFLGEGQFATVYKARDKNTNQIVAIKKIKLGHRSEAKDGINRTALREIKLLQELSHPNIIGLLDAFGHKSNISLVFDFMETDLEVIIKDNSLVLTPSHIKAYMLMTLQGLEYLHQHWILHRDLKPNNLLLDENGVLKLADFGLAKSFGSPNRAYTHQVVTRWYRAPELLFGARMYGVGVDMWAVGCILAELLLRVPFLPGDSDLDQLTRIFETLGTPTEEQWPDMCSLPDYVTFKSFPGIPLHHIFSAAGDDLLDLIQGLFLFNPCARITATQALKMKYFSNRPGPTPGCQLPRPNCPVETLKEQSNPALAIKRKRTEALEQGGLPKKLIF
CDK7/CycH/MNAT1, sequence (P51946 whole entry partner): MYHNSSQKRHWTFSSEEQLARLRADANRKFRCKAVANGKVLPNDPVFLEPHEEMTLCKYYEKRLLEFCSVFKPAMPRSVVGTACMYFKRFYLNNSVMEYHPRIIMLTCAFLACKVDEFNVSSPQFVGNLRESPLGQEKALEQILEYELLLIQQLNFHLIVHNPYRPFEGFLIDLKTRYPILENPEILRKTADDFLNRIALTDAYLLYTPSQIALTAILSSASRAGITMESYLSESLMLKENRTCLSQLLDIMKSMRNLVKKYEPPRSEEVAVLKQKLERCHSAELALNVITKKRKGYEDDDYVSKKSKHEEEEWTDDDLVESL
CDK7/CycH/MNAT1, sequence (P51948 whole entry partner): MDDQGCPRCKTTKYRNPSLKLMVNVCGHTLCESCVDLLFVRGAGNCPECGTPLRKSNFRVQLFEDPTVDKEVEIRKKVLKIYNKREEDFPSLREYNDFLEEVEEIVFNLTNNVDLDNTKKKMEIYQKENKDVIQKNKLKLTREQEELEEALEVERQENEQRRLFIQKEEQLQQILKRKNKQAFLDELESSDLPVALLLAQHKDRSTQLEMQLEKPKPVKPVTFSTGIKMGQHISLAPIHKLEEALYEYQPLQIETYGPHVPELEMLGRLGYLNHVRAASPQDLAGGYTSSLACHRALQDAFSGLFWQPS

inhibition at 10 µM [%] | IC50 [nM] | Structure (SMILES)
48 |  | C=CC(=O)Nc1ccc(-c2cccc(CC(=O)Nc3cc(C)[nH]n3)c2)cc1 [Compound 86, N-(3′-(2-((5-Methyl-1H-pyrazol-3-yl)amino)-2-oxoethyl)-[1,1′-biphenyl]-4-yl)acrylamide]
89 | > 100 | C=CC(=O)Nc1ccc(-c2cccc(C(C)C(=O)Nc3cc(CC)[nH]n3)c2)cc1 (centres unmarked) [Compound 87, N-(3′-(1-((5-ethyl-1H-pyrazol-3-yl)amino)-1-oxopropan-2-yl)-[1,1′-biphenyl]-4-yl)acrylamide]
62 | > 100 | C=CC(=O)Nc1ccc(-c2cccc(C(C)C(=O)Nc3cc(C(C)(C)C)[nH]n3)c2)cc1 (centres unmarked) [Compound 88, N-(3′-(1-((5-(tert-butyl)-1H-pyrazol-3-yl)amino)-1-oxopropan-2-yl)-[1,1′-biphenyl]-4-yl)acrylamide]
45 |  | CN(C)C/C=C/C(=O)Nc1ccc(C(=O)Nc2cccc(Nc3n[nH]c4ccccc34)c2)cc1 [Compound 89, (E)-N-(3-((1H-indazol-3-yl)amino)phenyl)-4-(4-(dimethylamino)but-2-enamido)benzamide]
83 | > 100 | C=CC(=O)Nc1ccc(-c2cccc(C(C)C(=O)Nc3n[nH]c4ccccc34)c2)cc1 (centres unmarked) [Compound 90, N-(3′-(1-((1H-indazol-3-yl)amino)-1-oxopropan-2-yl)-[1,1′-biphenyl]-4-yl)acrylamide]
84 | > 100 | CC(C(=O)Nc1n[nH]c2ccccc12)c1cccc(-c2ccc(NC(=O)/C=C/CN(C)C)cc2)c1 (centres unmarked) [Compound 91, (E)-N-(3′-(1-((1H-indazol-3-yl)amino)-1-oxopropan-2-yl)-[1,1′-biphenyl]-4-yl)-4-(dimethylamino)but-2-enamide]
86 | 25 to 100 | CC(C(=O)Nc1cc(C2CC2)[nH]n1)c1cccc(-c2cncc(NC(=O)/C=C/CN3CCCC3)n2)c1 (centres unmarked) [Compound 92, (E)-N-(6-(3-(1-((5-cyclopropyl-1H-pyrazol-3-yl)amino)-1-oxopropan-2-yl)phenyl)pyrazin-2-yl)-4-(pyrrolidin-1-yl)but-2-enamide]
100 | < 25 | C[C@H](C(=O)Nc1cc(C2CC2)[nH]n1)c1cccc(-c2ccc(NC(=O)/C=C/CN3CCOCC3)nc2)c1 [Compound 93, (S,E)-N-(5-(3-(1-((5-cyclopropyl-1H-pyrazol-3-yl)amino)-1-oxopropan-2-yl)phenyl)pyridin-2-yl)-4-morpholinobut-2-enamide]
85 | > 100 | O=C(/C=C/CN1CCCC1)Nc1ccc(-c2cccc(C3(C(=O)Nc4cc(C5CC5)[nH]n4)CC3)c2)cn1 [Compound 94, (E)-N-(5-cyclopropyl-1H-pyrazol-3-yl)-1-(3-(6-(4-(pyrrolidin-1-yl)but-2-enamido)pyridin-3-yl)phenyl)cyclopropane-1-carboxamide]
71 | > 100 | CC(C)(C(=O)Nc1cc(C2CC2)[nH]n1)c1cccc(-c2ccc(NC(=O)/C=C/CN3CCCC3)nc2)c1 [Compound 95, (E)-N-(5-(3-(1-((5-cyclopropyl-1H-pyrazol-3-yl)amino)-2-methyl-1-oxopropan-2-yl)phenyl)pyridin-2-yl)-4-(pyrrolidin-1-yl)but-2-enamide]

The remaining lines, values behind:

Structure (SMILES) | inhibition at 10 µM [%] | IC50 [nM]
C=CC(=O)Nc1cncc(-c2cccc(C(C)C(=O)Nc3cc(C4CC4)[nH]n3)c2)n1 (centres unmarked) [Compound 79, N-(6-(3-(1-((5-cyclopropyl-1H-pyrazol-3-yl)amino)-1-oxopropan-2-yl)phenyl)pyrazin-2-yl)acrylamide] | 102 | < 25
CC(C(=O)Nc1cc(C2CC2)[nH]n1)c1cccc(-c2ccc(NC(=O)/C=C/CN3CC[C@H](F)C3)c(F)c2)c1 (stereo partly drawn) [Compound 80, (E)-N-(3′-(1-((5-cyclopropyl-1H-pyrazol-3-yl)amino)-1-oxopropan-2-yl)-3-fluoro-[1,1′-biphenyl]-4-yl)-4-((S)-3-fluoropyrrolidin-1-yl)but-2-enamide] | 95 | 25 to 100
COC(=O)[C@@H]1CCCN1C/C=C/C(=O)Nc1ccc(-c2cccc(C(C)C(=O)Nc3cc(C4CC4)[nH]n3)c2)cn1 (stereo partly drawn) [Compound 81, methyl ((E)-4-((5-(3-(1-((5-cyclopropyl-1H-pyrazol-3-yl)amino)-1-oxopropan-2-yl)phenyl)pyridin-2-yl)amino)-4-oxobut-2-en-1-yl)-L-prolinate] | 100 | 25 to 100
CC(C(=O)Nc1cc(C2CC2)[nH]n1)c1cccc(-c2ccc(NC(=O)/C=C/CN3CCC[C@H]3CC#N)nc2)c1 (stereo partly drawn) [Compound 82, (E)-4-((S)-2-(cyanomethyl)pyrrolidin-1-yl)-N-(5-(3-(1-((5-cyclopropyl-1H-pyrazol-3-yl)amino)-1-oxopropan-2-yl)phenyl)pyridin-2-yl)but-2-enamide] | 99 | 25 to 100
C=CC(=O)Nc1ccc(C(=O)Nc2cccc(Nc3cc(CC)[nH]n3)c2)cc1 [Compound 83, 4-acrylamido-N-(3-((5-ethyl-1H-pyrazol-3-yl)amino)phenyl)benzamide] | 62 | > 100
CC(C(=O)Nc1cc(C2CC2)[nH]n1)c1cccc(C2=CCN(C(=O)/C=C/CN(C)C)CC2)c1 (centres unmarked) [Compound 84, (E)-N-(5-cyclopropyl-1H-pyrazol-3-yl)-2-(3-(1-(4-(dimethylamino)but-2-enoyl)-1,2,3,6-tetrahydropyridin-4-yl)phenyl)propanamide] | 88 | > 100
CC(C(=O)Nc1cc(C2CC2)[nH]n1)c1cccc(C2CCN(C(=O)/C=C/CN(C)C)CC2)c1 (centres unmarked) [Compound 85, (E)-N-(5-cyclopropyl-1H-pyrazol-3-yl)-2-(3-(1-(4-(dimethylamino)but-2-enoyl)piperidin-4-yl)phenyl)propanamide] | 74 | > 100
